Results on 2 compounds are retold here after patent publication US11351178B2, “Selective HDAC6 inhibitors” (ITALFARMACO S.P.A., priority 2017, dated 2022).

Structures are written as SMILES. Like-named read-outs stand apart in the source and are kept apart here.

Data set [1] deals with α-tubulin acetylation in 697 cell line. Briefly: In vitro α-tubulin acetylation in 697 cell line. The format is cell-based. The method, then:
(§1) The in vitro α-tubulin and H3 histone acetylation determination was evaluated on B 697 […] cell line.
(§2) The test molecules were diluted from 20 mM stock solution in DMSO with RPMI 10% FCS+0.01% DMSO medium at 20× concentration compared to the final concentration, added to the cells (15×10^6 cells in a total volume of 30 ml in RPMI medium 10% FCS+0.01% DMSO) to obtain the final concentrations of 1000, 333, 111 and 37 nM and incubated at 37° C., 5% CO2 for 16 hours.
At the end of the incubation period, 5×10^6 cells were taken from each sample, centrifuged for 5 minutes at 1100 rpm and washed in 0.9% NaCl at 4° C. The resulting pellet was lysed by treating at 4° C. for 30 minutes with 150 μl of Complete Lysis-M (Roche, cat-04719956051) containing protease inhibitors and phosphatase (Complete Easy Pack proteinase inhibitor cocktail tablets cat: 04693116001, Phostop easypack phosphatase inhibitor cocktails, cat: 01906837001—Roche), then centrifuged 10 minutes at 14,000 rpm (20817×g). 0.150 μg of supernatant (total protein extract) were diluted in 100 μl of 1×PBS and immobilized in Maxisorp F96 NUN-IMMUNO Plate (Nunc cat #5442404) at room temperature overnight. Plates were washed twice with Wash Buffer (PBS1X+0.005% tween 20) and saturated for 1 hour at room temperature with 300 μL of 1×PBS containing 10 FCS. After washing with buffer (1×PBS containing 0.005% tween), the plates were incubated for two hours at room temperature in the presence of anti-acetylated-α-tubulin antibody (Monoclonal Anti-acetylated-tubulin clone 6-11B-1, mouse ascites fluid, cat #T6793 Sigma, 100 μl diluted 1:1000 in 1×PBS containing 10% FCS) or with total anti-α-tubulin antibody (Monoclonal Anti alpha-tubulin produced in mouse, cat #T6074 Sigma). After washing, 100 μl per well of TMB substrate kit was added for 10 minutes at room temperature in the dark. The reaction was stopped by adding 50 μl of 2N H2SO4. The plates were read at Multiskan Spectrum spectrophotometer at a wavelength of 450 nm.
The degree of acetylation was calculated by dividing the absorbance obtained for acetylated α-tubulin by the absorbance of total α-tubulin.
(§3) Test results of tubulin and H3 histone acetylation, expressed as fold increase of ratio of acetylated α-tubulin/total α-tubulin and H3Ac/H3Tot, respectively, of each sample relative to the control sample (untreated) are summarized in Tables 6 and 6′.

The format of data set [2] is in vivo. The following applies: mouse, Day 12, 100 mg/Kg ip. The procedure: Following chronic intraperitoneal administration in C57BL/6 mice, compounds MTD was estimated by clinical (body weight and behaviour) and blood (white blood cells and platelets) parameters evaluation. The compounds were administered after dissolution in a H2O/PEG400 mixture in ratio 1:1 w/w containing 5% DMSO (for compound 17, 20% DMSO was used).
All animals were weighed the day before the treatment (day 0) and the average body weight was determined.
Animals (8 animals per group) were treated once a day starting from Day 1 during 5 consecutive days per week with: • a) the compounds at doses of 10, 30, 50 mg/kg ip, • b) Givinostat at 100 mg/kg (internal control) and • c) the vehicle solutions used for solubilizing the substances.
The volume of the solutions administered was 10 mL/Kg. The treatment was repeated for 2 weeks, for a total of 10 treatments/group.
On a daily basis any clinical sign (skin appearance, mobility and animal reactivity, respiration, etc.) indicating a possible toxicity of the compounds has been reported. The animal weight was evaluated on days 2, 4, 9 and 11.
On Day 1, 3, 5, 8, 10 and 12, blood sample (about 50 μL) were taken from the tail of the animal to evaluate the effect of the substances on blood parameters. Withdrawals were performed on 4 animals per group on alternate days.
Samples were harvested in tubes containing EDTA, appropriately diluted in physiological solution and analysed with a cell counter.
At the end of the study (day 12) the animals were sacrificed 60 minutes after the last treatment. Gross necropsy evaluation was performed to detect any internal organ abnormalities. Table 8 summarizes the data obtained in MTD determination experiments for some of the compounds according to the invention. Givinostat is a HDAC pan inhibitor and was used as a reference. The tested molecules are well tolerated.

For data set [3], the system named is H3 histone acetylation in 697 cell line. Briefly: In vitro H3 histone acetylation in 697 cell line. It is filed as cell-based. The procedure:
as §1, §2
The remaining cells (10×10^6) were treated by acid extraction of histones (Kazuhiro et al., PNAS (2002), 99 (13) 8921-8926). Cells were centrifuged 5 min at 1100 rpm at 4° C. and washed once in 0.9% NaCl. The resulting pellet was lysed with […] (10 mM Tris.HCl, pH 6.5/50 mM sodium bisulphite, 1% Triton X-100/10 mM MgCl2/8.6% saccharose containing the protease inhibitor mixture (Roche)) for 20 min at 4° C. The resulting nucleus pellet was repeatedly washed in buffer until supernatant clarification (centrifuged at 7,500×g, 5 minutes after each wash) and finally washed in nucleus buffer (10 mM Tris.HCl/13 mm EDTA, pH 7, 4) and resuspended in 250 μl of 0.2 M HCl/H2SO4. Histone proteins were extracted in an acidic environment by incubating overnight at 4° C. under gentle shaking. After centrifugation at 14,000 rpm at 4° C. for 10 minutes, 1250 μl of cold acetone was added to the supernatant and incubated overnight at −20° C., resulting in the precipitation of histone proteins. The pellet obtained after centrifugation for 10 minutes at 14000 rpm and 4° C. was washed with cold acetone, evaporated to dryness and resuspended in 50 μl distilled water. The protein content determination of both total and histone extracts was carried out by a colorimetric assay using a BCA Protein Assay Kit (Pierce cat: 23227).
H3 histone acetylation and total H3 amount were quantified by commercial ELISA assays PathScan acetylated histone H3 Sandwich Elisa kit, cat #7232C and PathScan total histone H3 Sandwich Elisa Kit, cat #7253C Cell Signaling) according to supplier reported method and by detecting absorbance at 450 nm wavelength using Multiskan Spectrum. ELISA tests were performed by analysing 0.250 μg and 0.500 μg of histone extract of each sample. The degree of acetylation was calculated by dividing H3 histone absorbance by histone total absorbance.
as §3

The test system of the next data set is human PBMCs. Briefly: Mixed Lymphocytes Reaction (MLR) with human PBMCs (IFN-γ, TNF-α, IL-6). The format is cell-based. Particulars: PBMC, 144 h, two-way MLR, 6 days, 0.05 μM, negative = induction. The method, then:
In order to study HDAC6 inhibitors ability to inhibit the activation of allogenic T CD4+ cells, a Mixed Lymphocytes Reaction (MLR or mixed lymphocyte culture, CLM) assay was performed. This is a reaction involving blast transformation of in vitro cultured lymphocytes in the presence of allogeneic lymphocytes. There is the so-called “two-way” reaction wherein the two lymphocyte populations stimulate each other to proliferate, and the so-called “one way” reaction, wherein the proliferation of one of the two populations is inhibited by mitomycin C or irradiation, these cells provide proliferation stimulus (stimulator) to the so-called “responder” cells.
Human peripheral blood mononuclear cells (PBMCs) used in MLR were obtained by Ficoll gradient separation from Buffy Coat of healthy donors.
We used a two-way MLR. The cells from the two donors were plated at 1:1 ratio (allogenic stimulation) to the final concentration of 2×10^5 per well in U-bottom 96 well plates in RPMI 1640 medium with 10% FBS and antibiotics. As a control we individually plated the cells from each donor (singenic stimulus). The experiment for each inhibitor was set in deduplicate for allogeneic stimuli and in quintuplicate for singenic stimuli. The cells were cultured for 6 days in an incubator at 37° C.
After 6 days the effect of the test compounds was evaluated by measuring the production of pro-inflammatory cytokines recognized to be characteristics of this assay.
For this purpose, the culture supernatant was harvested and used for IFN-γ, TNF-α and IL-6 inflammatory cytokine assay.
The JAK inhibitor ruxolitinib was used as the active reference compound in the test.
Values in the table indicate the inhibition percentages. Negative values indicate an induction.

`CCN(CC)Cc1ccc2cc(COC(=O)Nc3ccc(C(=O)NO)cc3)ccc2c1` [Givinostat, reference compound]: the “tubulin acetylation (in words)” value in data set [1] is “good acetylation of both tubulin and H3 histone”. For the same compound, the fold induction at 0.037 µM in data set [1] (Conc 37 nM, 16 hours, read-out: Tubulin acetylation (ratio of acetylated tubulin and total tubulin towards control)) is 1. Moreover, the fold induction at 0.111 µM in data set [1] (Conc 111 nM, 16 hours, read-out: Tubulin acetylation (ratio of acetylated tubulin and total tubulin towards control)) stood at 4; in data set [3] (16 h, conc 111 nM, read-out: Acetylation of H3 histone (fold increase of acetylated H3/total H3 towards control)), 8. Besides, the fold induction at 0.333 µM in data set [1] (Conc 333 nM, 16 hours, read-out: Tubulin acetylation (ratio of acetylated tubulin and total tubulin towards control)) came out at 12; in data set [3] (16 h, conc 333 nM, read-out: Acetylation of H3 histone (fold increase of acetylated H3/total H3 towards control)), 17. For the same compound, the fold induction at 1 µM in data set [1] (Conc 1000 nM, 16 hours, read-out: Tubulin acetylation (ratio of acetylated tubulin and total tubulin towards control)) was determined as 18; in data set [3] (16 h, conc 1000 nM, read-out: Acetylation of H3 histone (fold increase of acetylated H3/total H3 towards control)), 23. In data set [2], the “Body weight % vs control” value is 0.9%. For the same compound, the “Platelet % vs control” value in data set [2] is recorded as −7%. Besides, the “White blood cells % vs control” value in data set [2] is −72%. The “H3 histone acetylation (in words)” value in data set [3] was “good acetylation of both tubulin and H3 histone”.

Take `N#CC[C@H](C1CCCC1)n1cc(-c2ncnc3[nH]ccc23)cn1` [ruxolitinib, reference compound]: the inhibition at 0.05 µM with human PBMCs (read-out: MLR IFN-γ inhibition percentage) is 87.9%; in the data set on human PBMCs (read-out: MLR IL-6 inhibition percentage) it was 73.3%; in the data set on human PBMCs (read-out: MLR TNF-α inhibition percentage), 61.2%.
